In patent publication US4731109A, “Herbicidal 2-haloacetanilides” (Monsanto Company, priority 1982, dated 1988):

Tests used:
[1] = system: annual grasses, annual broadleafs and perennials; experiment: Other tests, preemergence selective control or suppression of weeds; type: in vivo
[2] = Toxicology studies, eye irritation; conditions: in vivo
Excerpt: Toxicology studies on the compound of Example 1 have indicated the compound to be quite safe. […] No special handling procedures beyond normal precautions are deemed necessary.

[3] = system: prickly sida; experiment: Field tests, selectivity; type: in vivo; conditions: in cotton
Excerpt: (§1) In the discussion and tables of data below, reference is made to herbicide application rates symbolized as "GR15 " and "GR85 "; these rates are given in kilograms per hectare (kg/ha) which are convertible into pounds per acre (lbs/A) by dividing the kg/ha rate by 1.12.
(§2) A further guide to the effectiveness of a chemical as a selective herbicide is the "selectivity factor" ("SF") for a herbicide in given crops and weeds. The selectivity factor is a measure of the relative degree of crop safety and weed injury and is expressed in terms of the GR15 /GR85 ratio, i.e., the GR15 rate for the crop divided by the GR85 rate for the weed, both rates in kg/ha (lb/A). In the tables below, selectivity factors are shown in parenthesis following the GR85 rate for each weed; the symbol "NS" indicates "non-selective". Marginal or undetermined selectivity is indicated by a dash (--).
(§3) It will be understood by those skilled in the art that not all of the named weeds are selectively controlled in all of the named crops under all conditions of climate, soil, moisture and/or herbicide application modes. Selectivity data for control of the foregoing weeds in the crops soybeans, corn, cotton and peanuts from a plurality of field tests in various locations under various conditions of soil, moisture, etc., is shown collectively in Tables VIII-XI, respectively.

[4] = system: crabgrass (smooth and hairy); experiment: Field tests, selectivity; type: in vivo; conditions: in cotton, 7 WAT
Excerpt: as §1, §2, §3

[5] = system: Giant foxtail; experiment: Field tests, selectivity; type: in vivo
Excerpt: as §1, §2, §3

[6] = system: Morningglory; experiment: Field tests, selectivity; type: in vivo; conditions: in corn
Excerpt: as §1, §2, §3

[7] = system: purslane; experiment: Field tests, selectivity; type: in vivo; conditions: in cotton, S.A., 9 WAT
Excerpt: as §1, §2, §3

[8] = system: Pennsylvania smartweed; experiment: Field tests, selectivity; type: in vivo; conditions: in soybeans, P.P.I., 8 WAT
Excerpt: as §1, §2, §3

[9] = system: purple nutsedge; experiment: Field tests, selectivity; type: in vivo; conditions: in cotton
Excerpt: as §1, §2, §3

[10] = system: Lambsquarters; experiment: Field tests, selectivity; type: in vivo; conditions: in soybeans, 6 WAT
Excerpt: as §1, §2, §3

[11] = system: Cocklebur; experiment: Field tests, selectivity; type: in vivo; conditions: in corn
Excerpt: as §1, §2, §3

[12] = system: cotton; experiment: Field tests, selectivity; type: in vivo
Excerpt: as §1, §2, §3

[13] = system: goosegrass; experiment: Field tests, selectivity; type: in vivo; conditions: in cotton, P.P.I., 7 WAT
Excerpt: as §1, §2, §3

## CCOCN(C(=O)CCl)c1c(C)cccc1C(F)(F)F [Example 1, N-(ethoxymethyl)-2'-trifluoromethyl-6'-methyl-2-chloroacetanilide]
[1]; in soybeans, corn, cotton, peanuts, beans, potatoes, tree fruits, turf grasses
  preemergence selective control or suppression of weeds: effectiveness for premergence selective control or suppression
[1]; in vivo
  competition from seedling johnsongrass, Texas panicum, sandbur, shattercane, Florida beggarweed, lambsquarters, ragweed, prickley sida and smartweed: reduces competition
[2]
  eye irritation: slight eye irritation
[3]; P.P.I., 6 WAT
  GR85: 4.8 kg/ha
[3]; S.A., 6 WAT
  GR85: 3.1 kg/ha
  S.F. (GR15/GR85): 1
[3]; S.A., 9 WAT
  GR85: 4.8 kg/ha
[4]; P.P.I.
  GR85: 1.1 kg/ha
[4]; S.A.
  GR85: < 1.1 kg/ha
  S.F. (GR15/GR85): > 1
[5]; in corn, P.P.I., 6 WAT
  GR85: 2.0 kg/ha
  S.F. (GR15/GR85): 2.5
[5]; in corn, P.P.I., 6.5 WAT
  GR85: 4.5 kg/ha
  S.F. (GR15/GR85): 1.5
[5]; in corn, S.A., 6 WAT
  GR85: < 1.1 kg/ha
  S.F. (GR15/GR85): 4
[5]; in corn, S.A., 6.5 WAT
  GR85: 8.4 kg/ha
[5]; in soybeans, P.P.I., 3 WAT
  GR85: < 1.1 kg/ha
  S.F. (GR15/GR85): > 4
[5]; in soybeans, P.P.I., 5 WAT
  GR85: < 1.1 kg/ha
  S.F. (GR15/GR85): > 4
[5]; in soybeans, S.A., 3 WAT
  GR85: < 1.1 kg/ha
  S.F. (GR15/GR85): > 4
[6]; P.P.I., 3 WAT
  GR85: > 4.5 kg/ha
[6]; P.P.I., 6 WAT
  GR85: > 4.5 kg/ha
[6]; S.A., 3 WAT
  GR85: > 4.5 kg/ha
[6]; S.A., 6 WAT
  GR85: > 4.5 kg/ha
[6]; Table IX
  suppression: suppression of these weeds was exhibited
[7]
  GR85: 2.0 kg/ha
  S.F. (GR15/GR85): 1.5
[8]
  GR85: 2.5 kg/ha
  S.F. (GR15/GR85): 2
[9]; P.P.I., 6 WAT
  GR85: 4.2 kg/ha
[9]; S.A., 6 WAT
  GR85: 1.7 kg/ha
  S.F. (GR15/GR85): 2
[9]; S.A., 9 WAT
  GR85: 2.2 kg/ha
  S.F. (GR15/GR85): 1.5
[10]; P.P.I.
  GR85: 2.8 kg/ha
[10]; S.A.
  GR85: 2.5 kg/ha
  S.F. (GR15/GR85): 1
[11]; P.P.I., 3 WAT
  GR85: > 4.5 kg/ha
[11]; P.P.I., 6 WAT
  GR85: > 4.5 kg/ha
[11]; S.A., 3 WAT
  GR85: > 4.5 kg/ha
[11]; S.A., 6 WAT
  GR85: > 4.5 kg/ha
[11]; Table IX
  suppression: suppression of these weeds was exhibited
[12]; Cotton/Crabgrass, P.P.I., 7 WAT
  GR15: 0.84 kg/ha
[12]; Cotton/Crabgrass, S.A., 7 WAT
  GR15: 1.4 kg/ha
[12]; Cotton/Goosegrass, P.P.I., 7 WAT
  GR15: 0.84 kg/ha
[12]; Cotton/Prickly sida, P.P.I., 6 WAT
  GR15: 3.4 kg/ha
[12]; Cotton/Prickly sida, S.A., 6 WAT
  GR15: 3.6 kg/ha
[12]; Cotton/Prickly sida, S.A., 9 WAT
  GR15: 3.4 kg/ha
[12]; Cotton/Purple nutsedge, P.P.I., 6 WAT
  GR15: 3.4 kg/ha
[12]; Cotton/Purple nutsedge, S.A., 6 WAT
  GR15: 3.6 kg/ha
[12]; Cotton/Purple nutsedge, S.A., 9 WAT
  GR15: 3.4 kg/ha
[12]; Cotton/Purslane, S.A., 9 WAT
  GR15: 3.4 kg/ha
[13]
  GR85: < 1.1 kg/ha
  control: marginal or indeterminate
